Data on 22 compounds can be found in PubChem BioAssay AID330 (DTP/NCI, 2004).

Molecules are shown by their SMILES. “And” between values parts separate entries of the source, which are not always exact repeats. Identical values can stand only once. Inconclusive results and toxic doses are left out.

The assay relates to P388 leukemia ip, CD2F1 mice, survival T/C. The assay can be described thus: NCI In Vivo Anticancer Drug Screen. Data for tumor model P388 Leukemia (intraperitoneal) in CD2F1 (CDF1) mice. The conditions noted are these: endpoint: median survival time, higher = longer survival. The essentials:
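Mice carrying the transplanted tumor received test compound or vehicle. Survival was recorded in each group, and the value is the treated-group measurement divided by that of the vehicle-treated control group.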

[1] abbreviates: dose: 25.0 mg/kg/injection, schedule: Q01DX009 (ip), vehicle: saline with Tween-80.
[2] abbreviates: dose: 50.0 mg/kg/injection, schedule: Q01DX009 (ip), vehicle: saline with Tween-80.
The mark [3] stands for this setting: dose: 100.0 mg/kg/injection, schedule: Q01DX009 (ip), vehicle: saline with Tween-80.
Setting [4] is: dose: 200.0 mg/kg/injection, schedule: Q01DX009 (ip), vehicle: saline with Tween-80.
Setting [5] is: dose: 50.0 mg/kg/injection, schedule: Q01DX005 (ip), vehicle: saline with Tween-80.
Setting [6] is: dose: 100.0 mg/kg/injection, schedule: Q01DX005 (ip), vehicle: saline with Tween-80.
The mark [7] stands for this setting: dose: 60.0 mg/kg/injection, schedule: Q01DX005 (ip), vehicle: saline with Tween-80.
Setting [8] is: dose: 120.0 mg/kg/injection, schedule: Q01DX005 (ip), vehicle: saline with Tween-80.
Setting [9] is: dose: 50.0 mg/kg/injection, schedule: Q04DX003 (ip), vehicle: saline with Tween-80.
Where [10] appears, read: dose: 100.0 mg/kg/injection, schedule: Q04DX003 (ip), vehicle: saline with Tween-80.
Where [11] appears, read: dose: 50.0 mg/kg/injection, schedule: Q01DX009 (ip), vehicle: Klucel (hydroxypropylcellulose) (HPC).
Setting [12] is: dose: 100.0 mg/kg/injection, schedule: Q01DX009 (ip), vehicle: Klucel (hydroxypropylcellulose) (HPC).
The mark [13] stands for this setting: dose: 200.0 mg/kg/injection, schedule: Q01DX009 (ip), vehicle: Klucel (hydroxypropylcellulose) (HPC).
Where [14] appears, read: dose: 25.0 mg/kg/injection, schedule: Q01DX009 (ip), vehicle: Klucel (hydroxypropylcellulose) (HPC).
[15] abbreviates: dose: 200.0 mg/kg/injection, schedule: Q04DX003 (ip), vehicle: saline with Tween-80.

On to `COc1cc2cc[n+](C)cc2cc1OC`, for which the T/C (dose: 6.25 mg/kg/injection, schedule: Q01DX009 (ip), vehicle: water) is 90 % of control; the T/C (dose: 12.5 mg/kg/injection, schedule: Q01DX009 (ip), vehicle: water) is 102 % of control; the T/C (dose: 22.0 mg/kg/injection, schedule: Q01DX009 (ip), vehicle: water) is 121 % of control; the T/C (dose: 25.0 mg/kg/injection, schedule: Q01DX009 (ip), vehicle: water) was 107 % of control; the T/C (dose: 33.0 mg/kg/injection, schedule: Q01DX009 (ip), vehicle: water) was 115 % of control; the T/C (dose: 75.0 mg/kg/injection, schedule: Q01DX009 (ip), vehicle: water) was 121 % of control. In addition, the T/C (dose: 100.0 mg/kg/injection, schedule: Q01DX009 (ip), vehicle: water) was 123 % of control.
Regarding `CC1(c2cccs2)NC(=O)NC1=O` (centres undefined), the T/C reads like this: under setting [1], 100 % of control; under setting [2], 109 % of control; under setting [3], 98 % of control; under setting [4], 104 % of control; (dose: 400.0 mg/kg/injection, schedule: Q01DX009 (ip), vehicle: saline with Tween-80) 101 % of control.
As to `CCC[CH2][Sn]([Cl])([Cl])[CH2]CCC.c1ccc(-c2nnc(-c3ccccn3)nc2-c2ccccc2)cc1`, the T/C is, setting by setting: (dose: 60.0 mg/kg/injection, schedule: Q01DX005 (ip), vehicle: Klucel (hydroxypropylcellulose) (HPC)) 106 % of control; (dose: 120.0 mg/kg/injection, schedule: Q01DX005 (ip), vehicle: Klucel (hydroxypropylcellulose) (HPC)) 106 % of control.
`OC(C[n+]1ccccc1)c1ccc2c(c1)OCO2` (centres undefined): the T/C runs as follows: under setting [5], 106 % of control; under setting [6], 97 % of control.
For the compound `O=[N+]([O-])c1cc2ccccc2c(O)c1O`, the T/C is, setting by setting: (dose: 12.5 mg/kg/injection, schedule: Q01DX009 (ip), vehicle: saline with Tween-80) 95 % of control; under setting [1], 104 % of control; under setting [2], 118 % of control.
For the compound `O=C1C2CCC(N1CCc1ccccc1)n1c(=O)n(-c3ccccc3)c(=O)n12` (centres undefined), the T/C (dose: 100.0 mg/kg/injection, schedule: Q01DX001 (ip), vehicle: Klucel (hydroxypropylcellulose) (HPC)) is 99 % of control; the T/C (dose: 200.0 mg/kg/injection, schedule: Q01DX001 (ip), vehicle: Klucel (hydroxypropylcellulose) (HPC)) was 104 % of control; the T/C (dose: 400.0 mg/kg/injection, schedule: Q01DX001 (ip), vehicle: Klucel (hydroxypropylcellulose) (HPC)) is 97 % of control.
Take `Cc1ccccc1NC(=O)C(=O)C(C#N)c1c(Cl)cccc1Cl` (centres undefined): the T/C is 114 % of control under setting [7]; 100 % of control under setting [8]; 99 % of control (dose: 240.0 mg/kg/injection, schedule: Q01DX005 (ip), vehicle: saline with Tween-80).
In the case of `CC(=O)c1c(C)[nH]c(-c2ccccc2)c1NS(=O)(=O)c1ccc(N)cc1`, the T/C runs as follows: under setting [7], 98 % of control; under setting [8], 91 % of control.
`Cc1nc(N)c2nc(SCc3ccc(Cl)cc3)c(N)nc2n1`: the T/C (dose: 25.0 mg/kg/injection, schedule: Q04DX003 (ip), vehicle: saline with Tween-80) was 100 % of control; the T/C under setting [9] is 90 % of control; the T/C under setting [10] is 92 % of control.
Consider `CCC12Nc3ccccc3C(CC)(C1=O)C(c1ccccc1)=C2c1ccccc1` (centres undefined), for which the T/C under setting [11] is 115 % of control, the T/C under setting [12] was 106 % of control and the T/C under setting [13] was 115 % of control.
For `CCN1CC2(C)CCC(OC)C34C5CC6CCC(O)(C5C(=O)O6)C(C(O)C23)C14` (centres undefined), the T/C under setting [14] was 100 % of control, the T/C under setting [11] is 98 % of control and the T/C under setting [12] is 95 % of control.
Consider `Clc1ccc(N=C/C=C\C=C/Nc2ccc(Cl)cc2)cc1`, for which the T/C reads like this: (dose: 5.0 mg/kg/injection, schedule: Q01DX009 (ip), vehicle: saline with Tween-80) 108 % of control; (dose: 10.0 mg/kg/injection, schedule: Q01DX005 (ip), vehicle: saline with Tween-80) 108 % of control; (dose: 10.0 mg/kg/injection, schedule: Q01DX009 (ip), vehicle: saline with Tween-80) 97 % of control; (dose: 20.0 mg/kg/injection, schedule: Q01DX005 (ip), vehicle: saline with Tween-80) 95 % of control; (dose: 20.0 mg/kg/injection, schedule: Q01DX009 (ip), vehicle: saline with Tween-80) 95 % of control; (dose: 40.0 mg/kg/injection, schedule: Q01DX005 (ip), vehicle: saline with Tween-80) 100 % of control. Moreover, the T/C reads like this: (dose: 80.0 mg/kg/injection, schedule: Q01DX005 (ip), vehicle: saline with Tween-80) 98 % of control; (dose: 160.0 mg/kg/injection, schedule: Q01DX005 (ip), vehicle: saline with Tween-80) 93 % of control.
Consider `COc1ccccc1NC(=O)CC(=O)N1N=C(C)C(N=Nc2ccc(I)cc2)C1=O` (centres undefined), for which the T/C was 95 % of control under setting [5]; 100 % of control under setting [6]; 92 % of control (dose: 200.0 mg/kg/injection, schedule: Q01DX005 (ip), vehicle: saline with Tween-80).
`O=C(/C=C/c1ccc(OCc2ccccc2)cc1)c1cccc([N+](=O)[O-])c1`: the T/C runs as follows: (dose: 50.0 mg/kg/injection, schedule: Q01DX009 (ip), vehicle: saline + alcohol) 100 % of control; (dose: 100.0 mg/kg/injection, schedule: Q01DX009 (ip), vehicle: saline + alcohol) 92 % of control; (dose: 200.0 mg/kg/injection, schedule: Q01DX009 (ip), vehicle: saline + alcohol) 89 % of control.
In the case of `NC(=O)C1C(=O)NC(=O)C1=O` (centres undefined), the T/C by setting is: (dose: 15.0 mg/kg/injection, schedule: Q01DX005 (ip), vehicle: saline with Tween-80) 100 % of control; (dose: 30.0 mg/kg/injection, schedule: Q01DX005 (ip), vehicle: saline with Tween-80) 101 % of control; under setting [7], 109 % of control and 114 % of control.
For the compound `Cc1cc2[n-]c1/C=c1\[n-]/c(c(CCC(=O)O)c1C)=C\c1[n-]c(c(C)c1CCC(=O)O)/C=c1/cc(C)/c([n-]1)=C/2.[Co]`, the T/C runs as follows: (dose: 12.5 mg/kg/injection, schedule: Q01DX005 (ip), vehicle: Klucel (hydroxypropylcellulose) (HPC)) 98 % of control; (dose: 25.0 mg/kg/injection, schedule: Q01DX005 (ip), vehicle: Klucel (hydroxypropylcellulose) (HPC)) 101 % of control and 97 % of control; (dose: 50.0 mg/kg/injection, schedule: Q01DX005 (ip), vehicle: Klucel (hydroxypropylcellulose) (HPC)) 106 % of control.
On to `Nc1nc(N)sc(=S)n1`, for which the T/C is 100 % of control under setting [14], 107 % of control under setting [11], 94 % of control under setting [12] and 101 % of control under setting [13].
With `CCC(=O)O[C@H]1CC[C@H]2[C@@H]3[C@@H](C)CC4=CC(=O)CC[C@]4(C)[C@H]3CC[C@]12C`, the T/C reads like this: under setting [10], 90 % of control; under setting [15], 90 % of control; (dose: 400.0 mg/kg/injection, schedule: Q04DX003 (ip), vehicle: saline with Tween-80) 90 % of control.
In the case of `Nc1cc(Cl)ccc1-c1ccccc1`, the T/C was 95 % of control under setting [12] and 92 % of control under setting [13].
As to `O=C(/C=C/c1ccccc1O)c1ccccc1`, the T/C is, setting by setting: under setting [2], 97 % of control; under setting [3], 102 % of control; under setting [4], 108 % of control.
For the compound `CCCN(CCC)CCCCO`, the T/C runs as follows: under setting [9], 195 % of control; under setting [10], 100 % of control; under setting [15], 100 % of control.
Turning to `OC(c1cc(F)c(F)c(F)c1F)(C(F)(F)F)C(F)(F)F`, the T/C is, setting by setting: (dose: 100.0 mg/kg/injection, schedule: Q04DX003 (ip), vehicle: suspension in saline) 98 % of control; (dose: 200.0 mg/kg/injection, schedule: Q04DX003 (ip), vehicle: suspension in saline) 104 % of control; (dose: 400.0 mg/kg/injection, schedule: Q04DX003 (ip), vehicle: suspension in saline) 101 % of control.
